Experimental data published in patent publication US11291624B2, “Compositions comprising active botanical ingredients” (CONOPCO, INC., priority 2018, dated 2022).

System: MelaKuits reconstructed human pigmented LSE model
Test: Inhibition of melanin in a living skin-equivalent (LSE) model
Format: cell-based
Details: for Melanin content as % of control: UVB-exposed pigmented LSE, the lower the better
Protocol: Details of the test are as follows:
Materials: • MelaKuits®, a reconstructed human pigmented LSE model, derived from 3D culture of normal human epidermal keratinocytes and melanocytes from Asian donors.
The pigmented LSE model was exposed to UVB (50 mJ/cm^2) for seven consecutive days day at periodic intervals of 24 hours to stimulate the synthesis of melanin. The extracts were applied topically on each LSE model on day 4 and day 6 with an interval of 48 hours for refreshing. For comparison, a blank experiment was carried out in which the LSE was neither exposed to UV radiation nor was any extract applied thereon. A control experiment was also carried out in which the LSE model was exposed to UV radiation, but no other treatment was followed.
On day 8, the appearance of each LSE model was assessed by photographing them. Thereafter, all the models subjected to the test were separated from their respective inserts and placed on a white plastic plate with the stratum corneum side facing up. The luminance (L*) value was read using a spectrophotometer CM700 (Konica-Minolta). For each model, the luminance was measured thrice, and the mean value was calculated for comparison.

Compound	Melanin content as % of control (2.5 μM)	Melanin content as % of control (75 μM, topical on day 4 and day 6, read on day 8)	Effectiveness in reducing melanin content, in words (positive control, Table 2)
CC1(C)C=Cc2c(ccc3c2OC[C@@H](c2ccc(O)cc2O)C3)O1 [Glabridin]	97.1 % of control	–	–
O=c1cc(CO)occ1O [Kojic acid]	–	77.4 % of control	most effective ingredient
